Reference: the supplement of paper PMC11451515

Tested on: P12-Ichikawa
Assay: cell viability relative to DMSO control; higher = less cytotoxic
Conditions: 48 h
Outline: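 NOMO1 or SEM (500 cells/well) or P12-Ichikawa (1000 cells/well) leukemia cells were adapted for at least four passages in each medium. They were seeded in 1536-well plates (5 μl) and pin-dosed with library compounds in DMSO over an 11-point threefold series, 47 μM to 0.79 nM. CellTiter-Glo One luminescence was read after 48 h at 37°C. Viability is the per-plate percentage relative to DMSO wells, with cell-free wells as background.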

[1] = HPLM + 10% dialyzed FBS, 0.000781 µM
[2] = HPLM + 10% dialyzed FBS, 0.00234 µM
[3] = HPLM + 10% dialyzed FBS, 0.00702 µM
[4] = HPLM + 10% dialyzed FBS, 0.0211 µM
[5] = HPLM + 10% dialyzed FBS, 0.0632 µM
[6] = HPLM + 10% dialyzed FBS, 0.19 µM
[7] = HPLM + 10% dialyzed FBS, 0.569 µM
[8] = HPLM + 10% dialyzed FBS, 1.71 µM
[9] = HPLM + 10% dialyzed FBS, 5.12 µM
[10] = HPLM + 10% dialyzed FBS, 15.4 µM
[11] = HPLM + 10% dialyzed FBS, 46.1 µM
[12] = RPMI 5 mM glucose + 10% FBS, 0.000781 µM
[13] = RPMI 5 mM glucose + 10% FBS, 0.00234 µM
[14] = RPMI 5 mM glucose + 10% FBS, 0.00702 µM
[15] = RPMI 5 mM glucose + 10% FBS, 0.0211 µM
[16] = RPMI 5 mM glucose + 10% FBS, 0.0632 µM
[17] = RPMI 5 mM glucose + 10% FBS, 0.19 µM
[18] = RPMI 5 mM glucose + 10% FBS, 0.569 µM
[19] = RPMI 5 mM glucose + 10% FBS, 1.71 µM
[20] = RPMI 5 mM glucose + 10% FBS, 5.12 µM
[21] = RPMI 5 mM glucose + 10% FBS, 15.4 µM
[22] = RPMI 5 mM glucose + 10% FBS, 46.1 µM
[23] = RPMI 5 mM glucose + 10% dialyzed FBS, 0.000781 µM
[24] = RPMI 5 mM glucose + 10% dialyzed FBS, 0.00234 µM
[25] = RPMI 5 mM glucose + 10% dialyzed FBS, 0.00702 µM
[26] = RPMI 5 mM glucose + 10% dialyzed FBS, 0.0211 µM
[27] = RPMI 5 mM glucose + 10% dialyzed FBS, 0.0632 µM
[28] = RPMI 5 mM glucose + 10% dialyzed FBS, 0.19 µM
[29] = RPMI 5 mM glucose + 10% dialyzed FBS, 0.569 µM
[30] = RPMI 5 mM glucose + 10% dialyzed FBS, 1.71 µM
[31] = RPMI 5 mM glucose + 10% dialyzed FBS, 5.12 µM
[32] = RPMI 5 mM glucose + 10% dialyzed FBS, 15.4 µM
[33] = RPMI 5 mM glucose + 10% dialyzed FBS, 46.1 µM

| SMILES | cell viability [1] | cell viability [2] | cell viability [3] | cell viability [4] | cell viability [5] | cell viability [6] | cell viability [7] | cell viability [8] | cell viability [9] | cell viability [10] | cell viability [11] | cell viability [12] | cell viability [13] | cell viability [14] | cell viability [15] | cell viability [16] | cell viability [17] | cell viability [18] | cell viability [19] | cell viability [20] | cell viability [21] | cell viability [22] | cell viability [23] | cell viability [24] | cell viability [25] | cell viability [26] | cell viability [27] | cell viability [28] | cell viability [29] | cell viability [30] | cell viability [31] | cell viability [32] | cell viability [33] |
| --- | --- | --- | --- | --- | --- | --- | --- | --- | --- | --- | --- | --- | --- | --- | --- | --- | --- | --- | --- | --- | --- | --- | --- | --- | --- | --- | --- | --- | --- | --- | --- | --- | --- |
| CCc1cccc2c3c([nH]c12)C(CC)(CC(=O)O)OCC3 (stereo unspecified) | 108% | 107% | 110% | 109% | 104% | 105% | 105% | 108% | 99.4% | 99.2% | 93.7% | 104% | 107% | 106% | 103% | 101% | 99.9% | 100% | 93.1% | 96.4% | 96.6% | 85.7% | 94.4% | 98% | 99.9% | 103% | 102% | 101% | 98.9% | 98.1% | 92.9% | 94.1% | 84.8% |
| OC(CCN1CCCCC1)(C2CC\3CC2\C=C3)C4=CC=CC=C4 (stereo unspecified) | 118% | 128% | 123% | 98.1% | 131% | 122% | 134% | 135% | 126% | 123% | 126% | – | – | – | – | – | – | – | – | – | – | – | 118% | 122% | 134% | 91.4% | 133% | 127% | 123% | 134% | 127% | 126% | 130% |
| O=C(C[C@@H]1C/C=C\CCC(=O)O[C@H](c2ccccc2)CNC1=O)NCc1ccc(Cl)cc1 | 99.1% | 110% | 79.7% | 117% | 126% | 122% | 116% | 119% | 123% | 116% | 117% | 95.1% | 117% | 70% | 112% | 115% | 118% | 128% | 128% | 115% | 119% | 123% | 102% | 115% | 79.3% | 120% | 120% | 120% | 123% | 119% | 114% | 120% | 113% |
| OCCNC1CCCc2c1[nH]c1ccc(-c3ccccc3)cc21 (stereo unspecified) | 100% | 107% | 106% | 105% | 110% | 110% | 115% | 108% | 111% | 78.4% | 16.6% | 103% | 111% | 109% | 108% | 114% | 108% | 114% | 118% | 110% | 73.5% | 18.2% | 105% | 111% | 113% | 109% | 107% | 114% | 119% | 114% | 111% | 80.4% | 28.9% |
